Test results: patent EP0385662B1, “Heterocycles with inhibitory activity of 5-lipoxygenase” (ZENECA LIMITED, priority 1989, dated 1990)

Columns and labels:
5-LO [1] = assay: Test c): ex vivo variation of test b), oral administration, blood collection, A23187 challenge, radioimmunoassay of LTB4; type: in vivo
Method: (§1) As stated previously, the heterocycles of the formula I are inhibitors of the enzyme 5-LO. […] This test provides a measure of the intrinsic inhibitory properties against soluble 5-LO in an extracellular environment. • b) An in vitro assay system involving incubating a test compound with heparinised human blood, prior to challenge with the calcium ionophore A23187 and then indirectly measuring the inhibitory effects on 5-LO by assaying the amount of L TB4 using the specific radioimmunoassay described by Carey and Forder (F. Carey and R.A. Forder, Brit. J. Pharmacol. 1985, 84, 34P) which involves the use of a protein-L TB4 conjugate produced using the procedure of Young et alia (Prostaglandins, 1983, 26(4), 605-613). The effects of a test compound on the enzyme cyclooxygenase (which is involved in the alternative metabolic pathway for arachidonic acid and gives rise to prostaglandins, thromboxanes and related metabolites) may be measured at the same time using the specific radioimmunoassay for thromboxane B2(TxB2) described by Carey and Forder (see above). This test provides an indication of the effects of a test compound against 5-LO and also cyclooxygenase in the presence of blood cells and proteins. It permits the selectivity of the inhibitory effect on 5-LO or cyclooxygenase to be assessed. • c) An ex vivo assay system, which is a variation of test b) above, involving administration of a test compound (usually orally as the suspension produced when a solution of the test compound in dimethylsulphoxide is added to carboxymethylcellulose), blood collection, heparinisation, challenge with A23187 and radioimmunoassay of L TB4 and TxB2. […]

cyclooxygenase = target: T1, cyclooxygenase (Homo sapiens, UniProt P23219); assay: Test b): in vitro heparinised human blood challenged with A23187, radioimmunoassay of thromboxane B2 (TxB2); type: cell-based; details: A23187 challenge, read-out: IC50 against TxB2
T1 construct: may be measured at the same time using the specific radioimmunoassay for thromboxane B2(TxB2); endogenous in cells; host or cells: blood cells (platelets) of heparinised human whole blood
T1 sequence (P23219 24-599): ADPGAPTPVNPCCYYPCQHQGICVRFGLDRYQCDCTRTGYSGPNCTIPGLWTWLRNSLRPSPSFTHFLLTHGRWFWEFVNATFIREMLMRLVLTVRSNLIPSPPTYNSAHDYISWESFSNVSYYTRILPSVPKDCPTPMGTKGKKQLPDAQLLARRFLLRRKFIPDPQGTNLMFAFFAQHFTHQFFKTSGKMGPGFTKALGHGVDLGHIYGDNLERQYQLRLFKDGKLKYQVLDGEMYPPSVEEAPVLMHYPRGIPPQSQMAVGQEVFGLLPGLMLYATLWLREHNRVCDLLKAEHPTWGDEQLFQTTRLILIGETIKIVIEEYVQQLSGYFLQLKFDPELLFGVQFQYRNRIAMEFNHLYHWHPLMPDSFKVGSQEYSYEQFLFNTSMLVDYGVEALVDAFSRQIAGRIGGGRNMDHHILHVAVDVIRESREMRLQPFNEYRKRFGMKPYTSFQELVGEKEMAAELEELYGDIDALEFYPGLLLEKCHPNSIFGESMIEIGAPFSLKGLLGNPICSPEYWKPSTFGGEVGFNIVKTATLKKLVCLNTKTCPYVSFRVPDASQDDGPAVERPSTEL
Method: as §1, with “J. Pharmacol. 1985, 84, 34P) which involves the use of a protein-L TB4 conjugate produced using the procedure of Young et alia (Prostaglandins, 1983, 26(4), 605-613).” left out, “This test provides an indication of the effects of a test compound against 5-LO and also cyclooxygenase in the presence of blood cells and proteins.” left out

5-LO [2] = target: T2, 5-LO (Homo sapiens, UniProt P09917); assay: Test b): in vitro heparinised human blood challenged with calcium ionophore A23187, radioimmunoassay of LTB4; type: cell-based; details: A23187 challenge, read-out: IC50 against LTB4
T2 construct: incubating a test compound with heparinised human blood, prior to challenge with the calcium ionophore A23187; endogenous in cells; host or cells: leukocytes of heparinised human whole blood
T2 sequence (P09917 1-674): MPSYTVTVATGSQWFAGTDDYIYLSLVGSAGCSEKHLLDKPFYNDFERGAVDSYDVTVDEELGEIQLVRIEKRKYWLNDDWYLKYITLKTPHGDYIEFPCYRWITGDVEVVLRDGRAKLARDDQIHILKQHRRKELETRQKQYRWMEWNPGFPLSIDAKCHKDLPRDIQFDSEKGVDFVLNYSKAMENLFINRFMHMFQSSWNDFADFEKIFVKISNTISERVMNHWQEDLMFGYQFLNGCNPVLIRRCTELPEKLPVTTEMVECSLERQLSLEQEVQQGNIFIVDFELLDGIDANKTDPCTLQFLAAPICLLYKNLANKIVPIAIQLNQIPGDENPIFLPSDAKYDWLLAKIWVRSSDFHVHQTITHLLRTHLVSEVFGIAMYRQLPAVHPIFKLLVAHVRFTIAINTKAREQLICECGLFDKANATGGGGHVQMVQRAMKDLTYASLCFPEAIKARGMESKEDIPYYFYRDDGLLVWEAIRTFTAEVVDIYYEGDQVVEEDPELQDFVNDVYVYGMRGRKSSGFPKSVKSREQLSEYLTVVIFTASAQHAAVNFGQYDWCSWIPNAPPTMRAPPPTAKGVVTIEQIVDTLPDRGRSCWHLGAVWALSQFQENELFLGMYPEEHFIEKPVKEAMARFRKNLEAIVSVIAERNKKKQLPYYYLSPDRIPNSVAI
Method: as §1, with “J. Pharmacol. 1985, 84, 34P) which involves the use of a protein-L TB4 conjugate produced using the procedure of Young et alia (Prostaglandins, 1983, 26(4), 605-613).” left out, “This test provides an indication of the effects of a test compound against 5-LO and also cyclooxygenase in the presence of blood cells and proteins.” left out

| IC50 (cyclooxygenase) | IC50 (5-LO [2]) | Structure (SMILES) | oral ED50 against LTB4 (5-LO [1]) |
| --- | --- | --- | --- |
| > 40000 nM | 2000 nM | COC1(c2cccc(OCC#Cc3ccccn3)c2)CCOCC1 [4-methoxy-4-[3-(3-(2-pyridyl)prop-2-yn-1-yloxy)phenyl]-tetrahydropyran] | < 100 mg/kg |
| – | – | COC1(c2cccc(OCc3ccc4c(ccc(=O)n4C)c3)c2)CCOCC1 [4-[3-(1,2-dihydro-1-methyl-2-oxoquinolin-6-ylmethoxy)phenyl]-4-methoxytetrahydropyran] | 3 mg/kg |
| – | 100 nM | COC1(c2cc(F)cc(OCc3ccc4ncccc4c3)c2)CCOCC1 [4-[5-fluoro-3-(6-quinolylmethoxy)phenyl]-4-methoxytetrahydropyran] | 8 mg/kg |
